Data reported in ChEMBL document CHEMBL3632520, “Correlation of antioxidant activities with theoretical studies for new hydrazone compounds bearing a 3,4,5-trimethoxy benzyl moiety” (Eur J Med Chem, 2015).
In brackets after ≈: the same amount, converted by molar mass.

Columns and labels:
Assay type in all cases: physicochemical
[1] = Antioxidant activity assessed as ferric ion reducing activity using fe3+-TPTZ assessed as fe2+-TPTZ formation after 30 mins by FRAP assay; conditions: 0.5 h
[2] = Antioxidant activity assessed as DPPH radical scavenging activity measured as discoloration incubated for 30 mins in dark
[3] = Antioxidant activity assessed as DPPH radical scavenging activity measured as discoloration incubated for 30 mins in dark relative to control; conditions: 0.5 h

Structure (SMILES) | Activity [1] | IC50 [2] | inhibition (INH) [3]
CCOC(=O)c1ccc(OCc2cc(OC)c(OC)c(OC)c2)cc1 | 27 µM | > 100 µg/mL | 10.8%
COc1cc(COc2ccc(C(=O)NN)cc2)cc(OC)c1OC | 3515 µM | 264 µg/mL (≈ 794 µM) | 37.2%
COc1cc(COc2ccc(C(=O)N/N=C/c3cc(Br)cc(Cl)c3O)cc2)cc(OC)c1OC | 125 µM | > 100 µg/mL | 15.6%
COc1cc(/C=N/NC(=O)c2ccc(OCc3cc(OC)c(OC)c(OC)c3)cc2)cc(OC)c1O | 2087 µM | 75 µg/mL (≈ 151 µM) | 57.9%
COc1cc(/C=N/NC(=O)c2ccc(OCc3cc(OC)c(OC)c(OC)c3)cc2)cc(OC)c1OC | 1365 µM | > 100 µg/mL | 10.4%
COc1cc(COc2ccc(C(=O)N/N=C/c3cccc(O)c3)cc2)cc(OC)c1OC | 1819 µM | > 100 µg/mL | 9.3%
COc1cc(COc2ccc(C(=O)N/N=C/c3ccc(O)cc3)cc2)cc(OC)c1OC | 3056 µM | > 100 µg/mL | 18.7%
O=C1O[C@H]([C@@H](O)CO)C(O)=C1O [ASCORBIC ACID] | 2562 µM | 40 µg/mL (≈ 227 µM) | 90.6%

The remaining lines, values ahead:

Activity [1] | IC50 [2] | inhibition (INH) [3] | Structure (SMILES)
1096 µM | 62 µg/mL (≈ 113 µM) | 75.3% | COc1cc(COc2ccc(C(=O)N/N=C/c3cc(C(C)(C)C)c(O)c(C(C)(C)C)c3)cc2)cc(OC)c1OC
1844 µM | 106 µg/mL (≈ 221 µM) | 53.3% | CCOc1cc(/C=N/NC(=O)c2ccc(OCc3cc(OC)c(OC)c(OC)c3)cc2)ccc1O
1609 µM | > 100 µg/mL | 10.4% | COc1cc(COc2ccc(C(=O)N/N=C/c3ccc(OC)c(OC)c3OC)cc2)cc(OC)c1OC
26 µM | > 100 µg/mL | 9.6% | COc1cc(COc2ccc(C(=O)N/N=C/c3ccccc3O)cc2)cc(OC)c1OC
2837 µM | 99.7 µg/mL (≈ 452 µM) | 54.8% | Cc1cc(C(C)(C)C)c(O)c(C(C)(C)C)c1 [BUTYLATED HYDROXYTOLUENE]
